Laboratory results taken from patent publication US9457033B2, “Steroid alkaloids and uses thereof as antimicrobial agents against electron transport-deficient microbes and as potentiators for antimicrobial agents against pathogenic bacteria” (priority 2011, dated 2016).
≈ marks a conversion by molar mass, not a printed value. Where two headings read alike, the source gives them in different places.

Tests used:
S. aureus CF35A-L = test: MIC, microdilution in CAMHB 24 h; assay type: cell-based, Staphylococcus aureus; settings: CF35A-L; for MIC: Staphylococcus aureus
S. aureus 8325-4 = test: MIC, microdilution in CAMHB 24 h; assay type: cell-based, Staphylococcus aureus; settings: 8325-4; for MIC: Staphylococcus aureus, 83254
S. aureus CF6B-L = test: MIC, microdilution in CAMHB 24 h; assay type: cell-based, Staphylococcus aureus; settings: CF6B-L; for MIC: Staphylococcus aureus, CF6BL
S. aureus CF2A-L = test: MIC, microdilution in CAMHB 24 h; assay type: cell-based; settings: CF2A-L; for MIC: Staphylococcus aureus, CF2AL
S. aureus ATCC 29213 [1] = test: MIC, microdilution in CAMHB 24 h, with or without tomatidine/compound; assay type: cell-based, Staphylococcus aureus; settings: for MIC: Staphylococcus aureus
S. aureus Sa228c = test: MIC, microdilution in CAMHB 24 h; assay type: cell-based, Staphylococcus aureus; settings: for MIC: Staphylococcus aureus
S. aureus CF4B-L = test: MIC, microdilution in CAMHB 24 h; assay type: cell-based, Staphylococcus aureus; settings: CF4B-L; for MIC: Staphylococcus aureus, CF4BL
S. aureus CF8E-L = test: MIC, microdilution in CAMHB 24 h; assay type: cell-based, Staphylococcus aureus; settings: CF8E-L; for MIC: Staphylococcus aureus, CF8EL
S. aureus ATCC BAA-41 = test: MIC, microdilution in CAMHB 24 h; assay type: cell-based, Staphylococcus aureus; settings: for MIC: Staphylococcus aureus
S. aureus Newman = test: MIC, microdilution in CAMHB 24 h; assay type: cell-based, Staphylococcus aureus; settings: Newman; for MIC: Staphylococcus aureus
S. aureus MA078038 = test: MIC, microdilution in CAMHB 24 h; assay type: cell-based, Staphylococcus aureus; settings: for MIC: Staphylococcus aureus
S. aureus CF7A-L = test: MIC, microdilution in CAMHB 24 h; assay type: cell-based, Staphylococcus aureus; settings: CF7A-L; for MIC: Staphylococcus aureus
S. aureus Newbould = test: MIC, microdilution in CAMHB 24 h; assay type: cell-based, Staphylococcus aureus; settings: Newbould; for MIC: Staphylococcus aureus
S. aureus SHY97-3906 = test: MIC, microdilution in CAMHB 24 h; assay type: cell-based, Staphylococcus aureus; settings: for MIC: Staphylococcus aureus, SHY973906
S. aureus CF1A-L = test: MIC, microdilution in CAMHB 24 h; assay type: cell-based, Staphylococcus aureus; settings: CF1A-L; for MIC: Staphylococcus aureus, CF1AL
S. aureus CF07-L = test: MIC, microdilution in CAMHB 24 h; assay type: cell-based, Staphylococcus aureus; settings: CF07-L; for MIC: Staphylococcus aureus, CF07L
S. aureus ATCC 43300 = test: MIC, microdilution in CAMHB 24 h; assay type: cell-based, Staphylococcus aureus; settings: ATCC 43300; for MIC: Staphylococcus aureus
S. aureus ATCC 29213 [2] = test: Checkerboard assay, aminoglycoside and tomatidine; assay type: cell-based, Staphylococcus aureus; settings: for MIC: Staphylococcus aureus, ATCC29213, checkerboard
Description: This checkerboard protocol (Eliopoulos and Moellering, 1996) was conducted by a microdilution method similar to that use for standard MICs determination. In 96 wells plates, antibiotics were loaded at a 4× concentration (where X is the maximal tested concentration) in well A1 and at a 2× concentration in the others wells of the column 1. Antibiotics were serially diluted 1:1 from the column 2 to column 10. […] Wells A12, B12, […] are positive untreated controls whereas wells […] are negative non-inoculated controls. […] The FIC index was calculated as follow (Eliopoulos and Moellering, 1996): FIC […]/MICB, where A and B are MICs of compounds A and B in combination and where MICA and MICB are the MICs of compound A alone and of compound B alone, respectively, and FICA and FICB are the FICs of compound A and of compound B, respectively.

[3] = Human (CF lungs), MRSA, read-out: MIC
[4] = 8 μg/ml of tomatidine, read-out: MIC +TO
[5] = absence of tomatidine, read-out: MIC −TO
[6] = Human (CF lungs), read-out: MIC

NC[C@H]1O[C@H](O[C@H]2[C@H](O)[C@@H](O[C@H]3O[C@H](CO)[C@@H](O)[C@H](N)[C@H]3O)[C@H](N)C[C@@H]2N)[C@H](O)[C@@H](O)[C@@H]1O [Kanamycin, kanamycin]
Fold (−TO/+TO) (S. aureus CF35A-L; 8 μg/ml of tomatidine): 4 fold
MIC (S. aureus CF35A-L; CF35AL, 8 μg/ml of tomatidine, read-out: MIC +TO): 1 µg/mL (≈ 2.06 µM)
MIC (S. aureus CF35A-L; CF35AL, absence of tomatidine, read-out: MIC −TO): 4 µg/mL (≈ 8.26 µM)
MIC (S. aureus CF35A-L; [3]): 4 µg/mL (≈ 8.26 µM)
Fold (−TO/+TO) (S. aureus 8325-4; 8 μg/ml of tomatidine): 2-4 fold
MIC (S. aureus 8325-4; [4]): 0.5 to 4 µg/mL (≈ 1.03 to 8.26 µM)
MIC (S. aureus 8325-4; Laboratory strain, read-out: MIC): 2 to 8 µg/mL (≈ 4.13 to 16.5 µM)
MIC (S. aureus 8325-4; [5]): 2 to 8 µg/mL (≈ 4.13 to 16.5 µM)
Fold (−TO/+TO) (S. aureus CF6B-L; 8 μg/ml of tomatidine): 4-8 fold
MIC (S. aureus CF6B-L; aac(6′)-aph(2″), 8 μg/ml of tomatidine, read-out: MIC +TO): 128 to 256 µg/mL (≈ 264 to 528 µM)
MIC (S. aureus CF6B-L; aac(6′)-aph(2″), absence of tomatidine, read-out: MIC −TO): 1020 µg/mL (≈ 2110 µM)
MIC (S. aureus CF6B-L; [6]): 1020 µg/mL (≈ 2110 µM)
Fold (−TO/+TO) (S. aureus CF2A-L; 8 μg/ml of tomatidine): 8 fold
MIC (S. aureus CF2A-L; [4]): 0.5 µg/mL (≈ 1.03 µM)
MIC (S. aureus CF2A-L; [6]): 4 µg/mL (≈ 8.26 µM)
MIC (S. aureus CF2A-L; [5]): 4 µg/mL (≈ 8.26 µM)
Fold (−TO/+TO) (S. aureus ATCC 29213 [1]; ATCC 29123, 8 μg/ml of tomatidine): 4-8 fold
Fold (−TO/+TO) (S. aureus ATCC 29213 [1]; ATCC 29213, tomatidine at 8 μg/ml): 4-8 fold
MIC (S. aureus ATCC 29213 [1]; ATCC 29123 / ATCC 29213, ATCC 29123, 8 μg/ml of tomatidine, read-out: MIC +TO): 0.5 µg/mL (≈ 1.03 µM)
MIC (S. aureus ATCC 29213 [1]; ATCC 29123 / ATCC 29213, ATCC 29123, absence of tomatidine, read-out: MIC −TO): 2 to 4 µg/mL (≈ 4.13 to 8.26 µM)
MIC (S. aureus ATCC 29213 [1]; ATCC29213, ATCC 29213, Human (SSTI), read-out: MIC): 2 to 4 µg/mL (≈ 4.13 to 8.26 µM)
MIC (S. aureus ATCC 29213 [1]; ATCC29213, ATCC 29213, absence of tomatidine, read-out: MIC −TO): 2 to 4 µg/mL (≈ 4.13 to 8.26 µM)
MIC (S. aureus ATCC 29213 [1]; ATCC29213, ATCC 29213, presence of tomatidine at 8 μg/ml, read-out: MIC +TO): 0.5 µg/mL
Fold (−TO/+TO) (S. aureus Sa228c; Sa228c, 8 μg/ml of tomatidine): 2-8 fold
MIC (S. aureus Sa228c; MRSA): 512 to 1020 µg/mL (≈ 1060 to 2110 µM)
MIC (S. aureus Sa228c; SA228C, read-out: MIC +TO): 128 to 256 µg/mL (≈ 264 to 528 µM)
MIC (S. aureus Sa228c; SA228C, read-out: MIC −TO): 512 to 1020 µg/mL (≈ 1060 to 2110 µM)
Fold (−TO/+TO) (S. aureus CF4B-L; 8 μg/ml of tomatidine): 8 fold
MIC (S. aureus CF4B-L; [4]): 0.5 µg/mL (≈ 1.03 µM)
MIC (S. aureus CF4B-L; [6]): 4 µg/mL (≈ 8.26 µM)
MIC (S. aureus CF4B-L; [5]): 4 µg/mL (≈ 8.26 µM)
Fold (−TO/+TO) (S. aureus CF8E-L; 8 μg/ml of tomatidine): 2-4 fold
MIC (S. aureus CF8E-L; [4]): 2 to 8 µg/mL (≈ 4.13 to 16.5 µM)
MIC (S. aureus CF8E-L; [6]): 16 µg/mL (≈ 33 µM)
MIC (S. aureus CF8E-L; [5]): 16 µg/mL (≈ 33 µM)
Fold (−TO/+TO) (S. aureus ATCC BAA-41; ATCC BAA-41, 8 μg/ml of tomatidine): 4-8 fold
MIC (S. aureus ATCC BAA-41; ATCC BAA-41 / MRSA, ATCC BAA-41, Human (HA), MRSA, read-out: MIC): 256 to 512 µg/mL (≈ 528 to 1060 µM)
MIC (S. aureus ATCC BAA-41; ATCCBAA41, ATCC BAA-41, ant(4′)-Ia, 8 μg/ml of tomatidine, read-out: MIC +TO): 64 µg/mL (≈ 132 µM)
MIC (S. aureus ATCC BAA-41; ATCCBAA41, ATCC BAA-41, ant(4′)-Ia, absence of tomatidine, read-out: MIC −TO): 256 to 512 µg/mL (≈ 528 to 1060 µM)
Fold (−TO/+TO) (S. aureus Newman; 8 μg/ml of tomatidine): 8 fold
MIC (S. aureus Newman; [4]): 0.5 µg/mL (≈ 1.03 µM)
MIC (S. aureus Newman; Human (Osteo), read-out: MIC): 4 µg/mL (≈ 8.26 µM)
MIC (S. aureus Newman; [5]): 4 µg/mL (≈ 8.26 µM)
Fold (−TO/+TO) (S. aureus MA078038; MA078038, 8 μg/ml of tomatidine): >1 fold
MIC (S. aureus MA078038; MA078038, aph(3′)-IIIa, 8 μg/ml of tomatidine, read-out: MIC +TO): 1020 µg/mL (≈ 2110 µM)
MIC (S. aureus MA078038; MA078038, aph(3′)-IIIa, absence of tomatidine, read-out: MIC −TO): > 1020 µg/mL
MIC (S. aureus MA078038; MA078038, Human (CA), MRSA, read-out: MIC): > 1020 µg/mL
Fold (−TO/+TO) (S. aureus CF7A-L; 8 μg/ml of tomatidine): 2-4 fold
MIC (S. aureus CF7A-L; CF7AL, ant(4′)-Ia, 8 μg/ml of tomatidine, read-out: MIC +TO): 64 to 256 µg/mL (≈ 132 to 528 µM)
MIC (S. aureus CF7A-L; CF7AL, ant(4′)-Ia, absence of tomatidine, read-out: MIC −TO): 256 to 512 µg/mL (≈ 528 to 1060 µM)
MIC (S. aureus CF7A-L; [3]): 256 to 512 µg/mL (≈ 528 to 1060 µM)
Fold (−TO/+TO) (S. aureus Newbould; 8 μg/ml of tomatidine): 8 fold
MIC (S. aureus Newbould; [4]): 0.5 µg/mL (≈ 1.03 µM)
MIC (S. aureus Newbould; Cow (mastitis), read-out: MIC): 4 µg/mL (≈ 8.26 µM)
MIC (S. aureus Newbould; [5]): 4 µg/mL (≈ 8.26 µM)
Fold (−TO/+TO) (S. aureus SHY97-3906; SHY-3906, 8 μg/ml of tomatidine): 4 fold
MIC (S. aureus SHY97-3906; SHY97-3906, Cow (mastitis), read-out: MIC): 2 µg/mL (≈ 4.13 µM)
MIC (S. aureus SHY97-3906; SHY-3906, 8 μg/ml of tomatidine, read-out: MIC +TO): 0.5 µg/mL (≈ 1.03 µM)
MIC (S. aureus SHY97-3906; SHY-3906, absence of tomatidine, read-out: MIC −TO): 2 µg/mL (≈ 4.13 µM)
Fold (−TO/+TO) (S. aureus CF1A-L; 8 μg/ml of tomatidine): 8 fold
MIC (S. aureus CF1A-L; [4]): 0.5 µg/mL (≈ 1.03 µM)
MIC (S. aureus CF1A-L; [6]): 4 µg/mL (≈ 8.26 µM)
MIC (S. aureus CF1A-L; [5]): 4 µg/mL (≈ 8.26 µM)
Fold (−TO/+TO) (S. aureus CF07-L; 8 μg/ml of tomatidine): 4-8 fold
MIC (S. aureus CF07-L; [4]): 0.5 to 1 µg/mL (≈ 1.03 to 2.06 µM)
MIC (S. aureus CF07-L; [6]): 4 µg/mL (≈ 8.26 µM)
MIC (S. aureus CF07-L; [5]): 4 µg/mL (≈ 8.26 µM)
Fold (−TO/+TO) (S. aureus ATCC 43300; 8 μg/ml of tomatidine): 2-4 fold
MIC (S. aureus ATCC 43300; ATCC 43300 / MRSA, Human (HA), MRSA, read-out: MIC): 512 to 1020 µg/mL (≈ 1060 to 2110 µM)
MIC (S. aureus ATCC 43300; ATCC43300, 8 μg/ml of tomatidine, read-out: MIC +TO): 256 µg/mL (≈ 528 µM)
MIC (S. aureus ATCC 43300; ATCC43300, absence of tomatidine, read-out: MIC −TO): 512 to 1020 µg/mL (≈ 1060 to 2110 µM)
MIC (S. aureus ATCC 29213 [2]; tomatidine 0 μg/ml): 2 to 4 µg/mL
MIC (S. aureus ATCC 29213 [2]; tomatidine 0.06 μg/ml): 2 µg/mL
MIC (S. aureus ATCC 29213 [2]; tomatidine 0.12 μg/ml): 0.5 to 1 µg/mL
MIC (S. aureus ATCC 29213 [2]; tomatidine 0.25 μg/ml): 0.5 µg/mL
MIC (S. aureus ATCC 29213 [2]; tomatidine 0.5 μg/ml): 0.5 µg/mL
MIC (S. aureus ATCC 29213 [2]; tomatidine 1 μg/ml): 0.5 to 1 µg/mL
MIC (S. aureus ATCC 29213 [2]; tomatidine 2 μg/ml): 0.25 to 0.5 µg/mL
MIC (S. aureus ATCC 29213 [2]; tomatidine 4 μg/ml): 0.5 µg/mL
MIC (S. aureus ATCC 29213 [2]; tomatidine 8 μg/ml): 0.5 µg/mL
FIC index (S. aureus ATCC 29213 [2]; aminoglycoside with tomatidine, tomatidine MIC considered 32 μg/ml, values overestimated): ≦0.193
